# Measured values: EP1156056A1, “5-GLYCOSYLOXY-6-HYDROXYNAPHTHO 2,3-f]QUINOLINE-7,12-DIONE HAVING ANTICANCER ACTIVITIES” (ZAIDAN HOJIN BISEIBUTSU KAGAKU KENKYU KAI, priority 1999, dated 2000)
# Read-outs that look alike come from different tables or passages of the source.
# Key:
# ICR mice = experiment: Acute toxicity in mice, survival after intraperitoneal administration (Test Example 2)
# Procedure: In this Test Example, the acute toxicity of Compound A of this invention as administered to mice was evaluated. […] By way of comparison, similar test was carried out with adriamycin (in the form of hydrochloride) .
# [1] = system: human pulmonary carcinoma (PC6); experiment: Inhibition of proliferation of cancer cells in culture (Test Example 1); format: cell-based; conditions: 72 hours cultivation, read-out: Concentration of test compound to inhibit the proliferation of cancer cells by 50 %
# Procedure: (§1) A culture medium for cancer cells was put into test tubes. To the culture medium in each tube, there was transplanted each of such various mouse cancer cells or human cancer cells as shown in Table 1 below. The cells so transplanted were cultivated under the conditions at 37°C in an air atmosphere containing 5 % CO2. To the medium containing the cancer cells so cultivated, there was added said Compounds A, B, D, E or F of this invention at different concentrations, as the test compound. […] As the comparative compound, adriamycin now clinically used was tested to repeat the test in the same way.
# (§2) Namely, they are mouse colon cancer (colon 26), mouse B-cell lymphoma (LB32T), mouse lymphoma (L-1210), human cervical cancer (HeLa), human acute promyeloleukemia (HL60), human prostatic cancer (PC3), human pudendal squamous cell carcinoma (A431), human pulmonary carcinoma (PC6), human mastocarcinoma (MCF7), human esophageal carcinoma (TT), human prostatic cancer (LNcap) and human colon cancer (DLD-1).
# [2] = system: human pudendal squamous cell carcinoma (A431); experiment: as above; format: cell-based; conditions: A-431, 72 hours cultivation, read-out: Concentration of test compound to inhibit the proliferation of cancer cells by 50 %
# Procedure: as §1, §2
# [3] = system: human esophageal carcinoma (TT); experiment: as above; format: cell-based; conditions: 72 hours cultivation, read-out: Concentration of test compound to inhibit the proliferation of cancer cells by 50 %
# Procedure: as §1, §2
# [4] = system: human mastocarcinoma (MCF7); experiment: as above; format: cell-based; conditions: 72 hours cultivation, read-out: Concentration of test compound to inhibit the proliferation of cancer cells by 50 %
# Procedure: as §1, §2
# [5] = system: mouse B-cell lymphoma (LB32T); experiment: Inhibition of proliferation of cancer cells in culture (Test Examples 1 and 3); format: cell-based
# Procedure: as §1, §2
# (§3) The test method and the nature of cancer cells to be tested are the same as those in Test Example 1 given hereinbefore. In this Test Example 3, however, eight kinds of cancer cells indicated in Table 3 below are used, among the twelve kinds of cancer cells which were used in Test Example 1.
# (§4) As the test results of measurement, the evaluated values of the concentration of each test compound which could inhibit the proliferation of cancer cells by 50 % (namely, 50 % inhibitory concentration:IC50, µg/ml) are given in Table 3.
# [6] = system: human prostatic cancer (PC3); experiment: as above; format: cell-based; conditions: for IC50: Homo sapiens; for anticancer activities against PC3, times higher than those of adriamycin: Test Example 1, relative to adriamycin
# Procedure: as §1, §2, §3, §4
# [7] = system: human prostatic cancer (LNcap); experiment: as above; format: cell-based
# Procedure: as §1, §2, §3, §4
# [8] = system: human acute promyeloleukemia (HL60); experiment: as above; format: cell-based
# Procedure: as §1, §2, §3, §4
# mouse lymphoma (L-1210) = experiment: as above; format: cell-based
# Procedure: as §1, §2, §3, §4
# [9] = system: mouse colon cancer (colon 26); experiment: as above; format: cell-based
# Procedure: as §1, §2, §3, §4
# [10] = system: human colon cancer (DLD-1); experiment: as above; format: cell-based; conditions: for IC50: Homo sapiens; for anticancer activities against DLD-1, times higher than those of adriamycin: Test Example 1, relative to adriamycin
# Procedure: as §1, §2, §3, §4
# [11] = system: human cervical cancer (HeLa); experiment: as above; format: cell-based
# Procedure: as §1, §2, §3, §4
# [12] = 72 hours cultivation, Test Example 1, read-out: Concentration of test compound to inhibit the proliferation of cancer cells by 50 %, IC50
# [13] = Test Example 3, Compounds N to T used as trifluoroacetate, read-out: IC50
# [14] = LNCap, Test Example 3, Compounds N to T used as trifluoroacetate, read-out: IC50
# [15] = LNcap, 72 hours cultivation, Test Example 1, read-out: Concentration of test compound to inhibit the proliferation of cancer cells by 50 %, IC50
# [16] = HL-60, 72 hours cultivation, Test Example 1, read-out: Concentration of test compound to inhibit the proliferation of cancer cells by 50 %, IC50
# [17] = HL-60, Test Example 3, Compounds N to T used as trifluoroacetate, read-out: IC50
# [18] = L1210, 72 hours cultivation, Test Example 1, read-out: Concentration of test compound to inhibit the proliferation of cancer cells by 50 %, IC50
# [19] = L1210, Test Example 3, Compounds N to T used as trifluoroacetate, read-out: IC50
# [20] = Colon26, Test Example 3, Compounds N to T used as trifluoroacetate, read-out: IC50
# [21] = colon26, 72 hours cultivation, Test Example 1, read-out: Concentration of test compound to inhibit the proliferation of cancer cells by 50 %, IC50
# [22] = Test Example 3, relative to adriamycin
# [23] = ICR, mouse, in vivo, ip, 14 days
"IC50 [5, 13]","IC50 [6, 13]","IC50 [7, 14]","IC50 [8, 17]",IC50 (mouse lymphoma (L-1210); [19]),"IC50 [9, 20]","IC50 [10, 13]","IC50 [11, 13]",SMILES,IC50 [1],IC50 [2],IC50 [3],IC50 [4],"IC50 [5, 12]","IC50 [6, 12]","IC50 [7, 15]","IC50 [8, 16]",IC50 (mouse lymphoma (L-1210); [18]),"IC50 [9, 21]","IC50 [10, 12]","IC50 [11, 12]",also measured
0.8 µg/mL,0.65 µg/mL,0.57 µg/mL,0.78 µg/mL,1.17 µg/mL,0.55 µg/mL,0.45 µg/mL,0.15 µg/mL,"C[C@@H]1O[C@H](Oc2c(OC(=O)CCN)c3c(c4cccnc24)C(=O)c2ccccc2C3=O)[C@@H](F)[C@H](OC(=O)CCN)[C@@H]1OC(=O)CCN [Compound T, 5-[3,4-di-O-(3-aminopropionyl)-2,6-dideoxy-2-fluoro-β-L-galactopyranosyloxy)-6-(3-aminopropionyloxy)-naphtho[2,3-f]quinoline-7,12-dione]",,,,,,,,,,,,,
0.68 µg/mL,0.39 µg/mL,0.47 µg/mL,0.54 µg/mL,0.72 µg/mL,0.46 µg/mL,0.18 µg/mL,0.29 µg/mL,"C[C@@H]1O[C@H](Oc2c(O)c3c(c4cccnc24)C(=O)c2ccccc2C3=O)[C@@H](F)[C@H](OC(=O)CCN)[C@@H]1O [Compound R, 5-[3-O-(3-aminopropionyl)-2,6-dideoxy-2-fluoro-β-L-galactopyranosyloxy]-6-hydroxynaphtho [2,3-f]quinoline-7,12-dione]",,,,,,,,,,,,,"anticancer activity against PC3, times higher than that of adriamycin [6, 22]: 2.9 times; anticancer activity against DLD-1, times higher than that of adriamycin [10, 22]: 19 times"
0.78 µg/mL,0.79 µg/mL,1.54 µg/mL,1.09 µg/mL,2.09 µg/mL,1.43 µg/mL,0.71 µg/mL,1.7 µg/mL,"C[C@@H]1O[C@@H](Oc2c(O)c3c(c4cccnc24)C(=O)c2ccccc2C3=O)[C@@H](F)[C@H](OC(=O)CCN)[C@@H]1OC(=O)CCN [Compound Q, 5-[3,4-di-O-(3-aminopropionyl)-2,6-dideoxy-2-fluoro-α-L-galactopyranosyloxy]-6-hydroxynaphtho [2,3-f]quinoline-7,12-dione]",,,,,,,,,,,,,

# Further lines, the compound ahead of its results:
SMILES,"IC50 [5, 13]","IC50 [6, 13]","IC50 [7, 14]","IC50 [8, 17]",IC50 (mouse lymphoma (L-1210); [19]),"IC50 [9, 20]","IC50 [10, 13]","IC50 [11, 13]",IC50 [1],IC50 [2],IC50 [3],IC50 [4],"IC50 [5, 12]","IC50 [6, 12]","IC50 [7, 15]","IC50 [8, 16]",IC50 (mouse lymphoma (L-1210); [18]),"IC50 [9, 21]","IC50 [10, 12]","IC50 [11, 12]",also measured
"COc1cccc2c1C(=O)c1c(O)c3c(c(O)c1C2=O)C[C@@](O)(C(=O)CO)C[C@@H]3O[C@H]1C[C@H](N)[C@H](O)[C@H](C)O1 [Adriamycin, reference compound]",0.04 µg/mL,1.14 µg/mL,0.1 µg/mL,0.03 µg/mL,0.38 µg/mL,0.09 µg/mL,3.4 µg/mL,0.06 µg/mL,1.01 µg/mL,1.33 µg/mL,1.38 µg/mL,1.02 µg/mL,0.03 µg/mL,0.9 µg/mL,0.07 µg/mL,0.03 µg/mL,0.24 µg/mL,0.07 µg/mL,1.9 µg/mL,0.06 µg/mL,"dosage at which the total number of mice survived for 14 days (ICR mice; ICR mice, intraperitoneal, 14 days): 0.125 mg/mouse; Survival day(s) of respective mice (ICR mice; ICR mice, intraperitoneal, dosage 0.125 mg/mouse, 4 mice per group, observed 14 days): >14 (all mice) day(s)"
"C[C@@H]1O[C@@H](Oc2c(O)c3c(c4cccnc24)C(=O)c2ccccc2C3=O)[C@H](F)[C@H](O)[C@H]1N [Compound F, 5-(4-amino-2,4,6-trideoxy-2-fluoro-α-L-mannopyranosyloxy)-6-hydroxynaphtho[2,3-f]quinoline-7,12-dione]",,,,,,,,,2.92 µg/mL,2.25 µg/mL,3.48 µg/mL,2.46 µg/mL,,0.35 µg/mL,0.67 µg/mL,0.11 µg/mL,,,0.17 µg/mL,0.34 µg/mL,"anticancer activities against PC3, times higher than those of adriamycin [6]: 2.6 times; anticancer activities against DLD-1, times higher than those of adriamycin [10]: 11 times"
"C[C@@H]1O[C@@H](Oc2c(O)c3c(c4cccnc24)C(=O)c2ccccc2C3=O)[C@H](F)[C@H](O)[C@@H]1O [Compound A, 5-(2,6-dideoxy-2-fluoro-α-L-talopyranosyloxy)-6-hydroxynaphtho[2,3-f]quinoline-7,12-dione]",,,,,,,,,4.34 µg/mL,3.36 µg/mL,3.16 µg/mL,2.23 µg/mL,0.43 µg/mL,0.16 µg/mL,0.28 µg/mL,0.36 µg/mL,0.59 µg/mL,0.32 µg/mL,0.12 µg/mL,0.46 µg/mL,"Survival day(s) of respective mice (ICR mice; [23]): >14 (all mice) day(s); dosage at which the total number of mice survived for 14 days (ICR mice; [23]): 4 mg/mouse; anticancer activities against PC3, times higher than those of adriamycin [6]: 5.6 times; anticancer activities against DLD-1, times higher than those of adriamycin [10]: 16 times"
